Measured values published in patent US20170128489A1 (priority 2014, published 2017).
Read-outs that look alike come from different tables or passages of the source.

Experiments:
[1] = test system: influenza A (S31N), A/California/07/2009; type: cell-based, Influenza A virus
[2] = target: M2 (22-62, S31N) (Influenza A virus, UniProt P0DOF5, S31N); type: biochemical
[3] = test system: influenza A (S31N), A/California/07/2009; type: cell-based, Influenza A virus; remark: listed apart in the source
[4] = target: influenza A M2 channels (A/Udorn/72, S31N mutant) (Influenza A virus, UniProt P0DOF5, S31N); type: cell-based; details: for Percent Block / EC50: pH 5.3
[5] = target: M2 22-62 peptide, mutant A/Udorn/72 S31N (Influenza A virus, UniProt P0DOF5, S31N); type: biochemical

Compound	% Block [1]	EC50 [1]	% Block [2]	EC50 [2]	% Block [3]	EC50 [3]	Percent Washout [4]	Percent Block [4]	Mutant Percent Block [5]	Mutant w/ Compound Proton Flux [5]	EC50 [4]
[Cl][Cu][Cl] [CuCl2, reference compound]	63%	57.2 µM	94%	6.1 µM							
Copper cyclooctylimidodiacetamide [CO-IDAm-Cu]					60.2%	33.5 µM	10%	86%			
NCCNCCN.[Cl][Cu][Cl] [Cu(dien)Cl2, reference compound]	66%	51.6 µM									
NC(=O)CN(CC(N)=O)C1CCCCCCC1 [CO-IDAm, Cyclooctylimidodiacetamide]							100%	17%			
O=C(O)CN(CC(=O)O)C1CCCCCCC1.[Zn] [CO-IDA-Zn, Zinc cyclooctyliminodiacetic acid]					61.5%		80%	32%	76.29%	13.21 H^+/sec/channel	
Copper N-(1-adamantyl)iminoacetate acetylacetonate [Amt-IMA-Cu-ACAC]	97%	2.91 µM	96%				58%	65%			
O=C1C[N](C2CCCCCCC2)[Cu]2([O]1)[O]C(=O)C[N]2C1CCCCCCC1 [Bis(CO-IMA)-Cu, Copper biscyclooctyl iminomonoacetic acid]					66.4%	25.3 µM	11%	81%	70.38%	16.95 H^+/sec/channel	
O=C(O)CN(CC(=O)O)C1CCCCCCC1 [CO-IDA, Cylcooctyliminodiacetic acid]								No Block			
Zinc cyclooctylimidodiacetamide [CO-IDAm-Zn]					54%	21.3 µM	74%	42%			
Cobalt bisethylenediamine pinanamine imidazole [Pin-Imid-Co-Bis(en)]					65.6%	13.1 µM		No Block			
O=C(O)CN(CC(=O)O)C12CC3CC(CC(C3)C1)C2.[Cu] [Amt-IDA-Cu, Copper N-(1-adamantyl)-iminodiacetic acid]	82%	21.8 µM	82%								
O=C(O)CN(CC(=O)O)C1CCCCCCC1.[Cu] [CO-IDA-Cu, Copper cyclooctyliminodiacetic acid]					62.2%	30.3 µM	94%	26%	75.75%	12.89 H^+/sec/channel	
CC(=O)[O][Zn]1[O]C(=O)C[N]1C1CCCCCCC1 [CO-IMA-Zn, Zinc cyclooctylaminoacetic acid]					79.8%	12.6 µM	93%	42%			
Copper N-(1-cyclooctyl)iminoacetate acetylacetonate [CO-IMA-Cu-ACAC]					65.7%	13.1 µM	16%	73%			
Cobalt Biscyclooctylimidodiacetic acid [Bis(CO-IDA)-Co]					50.6%	24.4 µM	89%	28%			240 µM
Copper pinanamine imidazole [Pin-Imid-Cu]					71.6%						
CC(=O)[O-].CC(=O)[O-].[Cu+2] [Cu(Acetate)2, reference compound]					38%	40.8 µM	4%	70%	67.23%	17.85 H^+/sec/channel	74 µM
